This is an account of results in patent US20220169654A1, “New Organic Compounds” (Servier Pharmaceuticals LLC, priority 2020, published 2022).

This assay deals with T1, MAT2A homodimer (Homo sapiens, UniProt P31153).
T1 construct: inferred from Ni sepharose purification with imidazole elution; made in house; host or cells: Sf9 insect cells, baculovirus (Bac to Bac, pFASTBAC1)
Kind of assay: MAT2A inhibition (biochemical, liberated phosphate, PiColorLock Gold). Particulars: recombinant MAT2A homodimer; IC50 bin with Max Inh.; read-out: Enzyme Inhibition Bin. As to the method: Mat2A protein was expressed by recombinant baculovirus in SF9 infected cells using the Bac to Bac system cloned into the pFASTBAC1 vector (Invitrogen, Carlsbad, Calif.). Recombinant MAT2A was isolated from the cell lysate of 150 g of infected cells using HP Ni sepharose column chromatography. Recombinant MAT2A homodimer was eluted with 250 and 500 mM imidazole, and fractions containing MAT2A were identified by sodium dodecyl sulfate polyacrylamide gel electrophoresis and pooled.
For determination of the inhibitory potency of compounds against the MAT2A homodimer, protein was diluted to 4 μg/mL in assay buffer (50 mM Tris, pH 8.0, 50 mM KCl, 15 mM MgCl2, 0.3 mM EDTA, 0.005% [w/v] bovine serum albumin [BSA]). Test compound was prepared in 100% dimethyl sulfoxide (DMSO) at 50× the desired final concentration. A 1 μL volume of compound dilution was added to 40 μL of enzyme dilution and the mixture was allowed to equilibrate for 60 minutes at 25° C. The enzymatic assay was initiated by the addition of 10 μL of substrate mix (500 μM ATP, pH 7.0, 400 μM L-methionine in 1× assay buffer), and the mixture was incubated for a further 60 minutes at 25° C. The reaction was halted and the liberated phosphate released by the enzyme in stoichiometric amounts by the production of S-adenosyl methionine (SAM) was measured using the PiColorLock Gold kit (Innova Biosciences, UK). Absolute product amounts were determined by comparison to a standard curve of potassium phosphate buffer, pH 8.0. The compounds were also tested in a secondary assay utilizing 1 μg/mL MAT2A and incubated for 5 hours at 25° C. before halting and processing as above.
Specific compounds disclosed herein were tested in the foregoing assay and they were determined to inhibit MAT2A with an IC50. See, Table 1 below.

SMILES strings stand for the structures.

T1 sequence (P31153 whole entry): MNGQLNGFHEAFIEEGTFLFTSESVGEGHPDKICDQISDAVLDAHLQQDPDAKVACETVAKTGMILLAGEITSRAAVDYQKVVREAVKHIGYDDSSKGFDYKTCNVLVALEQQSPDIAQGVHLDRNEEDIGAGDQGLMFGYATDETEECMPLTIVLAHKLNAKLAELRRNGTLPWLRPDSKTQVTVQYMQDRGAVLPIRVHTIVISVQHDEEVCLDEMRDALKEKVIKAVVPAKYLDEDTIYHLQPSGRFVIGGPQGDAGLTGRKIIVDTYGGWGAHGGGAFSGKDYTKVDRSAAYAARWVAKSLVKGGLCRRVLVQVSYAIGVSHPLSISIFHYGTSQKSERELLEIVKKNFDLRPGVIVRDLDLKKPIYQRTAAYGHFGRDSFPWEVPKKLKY

Regarding `CC(C)Cn1cc(C#N)c2nn(-c3ccc4nn(C)cc4c3)c(=O)c(-c3ccc(C4CC4)nc3)c21` [Example 121, 4-(6-cyclopropylpyridin-3-yl)-5-isobutyl-2-(2-methyl-2H-indazol-5-yl)-3-oxo-3,5-dihydro-2H-pyrrolo[3,2-c]pyridazine-7-carbonitrile], the IC50 was below 1 µM.

On to `Cn1cc2cc(-n3nc4ccn(CC5CC5)c4c(-c4cncc(C(F)(F)F)c4)c3=O)ccc2n1` [Example 125, 5-(cyclopropylmethyl)-2-(2-methyl-2H-indazol-5-yl)-4-(5-(trifluoromethyl)pyridin-3-yl)-2,5-dihydro-3H-pyrrolo[3,2-c]pyridazin-3-one], for which the IC50 is above 10 µM.

For the compound `Cn1cc2cc(-n3nc4ccn(CC5CC5)c4c(-c4cncc(Cl)c4)c3=O)ccc2n1` [Example 126, 4-(5-chloropyridin-3-yl)-5-(cyclopropylmethyl)-2-(2-methyl-2H-indazol-5-yl)-2,5-dihydro-3H-pyrrolo[3,2-c]pyridazin-3-one], the IC50 is below 1 µM.

`CC(C)n1cc(C#N)c2nn(-c3ccc4nn(C)cc4c3)c(=O)c(-c3ccc(C4CC4)nc3)c21` [Example 146, 4-(6-cyclopropylpyridin-3-yl)-5-isopropyl-2-(2-methyl-2H-indazol-5-yl)-3-oxo-3,5-dihydro-2H-pyrrolo[3,2-c]pyridazine-7-carbonitrile]: the IC50 is below 1 µM.

Consider `CN(C)C(=O)c1cn(CC2CC2)c2c(-c3ccc(C4CC4)nc3)c(=O)n(-c3ccc4nn(C)cc4c3)nc12` [Example 164, 5-(cyclopropylmethyl)-4-(6-cyclopropylpyridin-3-yl)-N,N-dimethyl-2-(2-methyl-2H-indazol-5-yl)-3-oxo-3,5-dihydro-2H-pyrrolo[3,2-c]pyridazine-7-carboxamide], for which the IC50 was below 1 µM.

Take `CNS(=O)(=O)c1cn(CC2CC2)c2c(-c3ccc(C4CC4)cc3)c(=O)n(-c3ccc4nn(C)cc4c3)nc12` [Example 179, 5-(cyclopropylmethyl)-4-(4-cyclopropylphenyl)-N-methyl-2-(2-methyl-2H-indazol-5-yl)-3-oxo-3,5-dihydro-2H-pyrrolo[3,2-c]pyridazine-7-sulfonamide]: the IC50 was above 10 µM.

`CNS(=O)(=O)c1cn(CC2CC2)c2c(-c3ccc(C4CC4)nc3)c(=O)n(-c3ccc4nn(C)cc4c3)nc12` [Example 181, 5-(cyclopropylmethyl)-4-(6-cyclopropylpyridin-3-yl)-N-methyl-2-(2-methyl-2H-indazol-5-yl)-3-oxo-3,5-dihydro-2H-pyrrolo[3,2-c]pyridazine-7-sulfonamide]: the IC50 was above 10 µM.

`CNS(=O)(=O)c1cn(CC2CC2)c2c(-c3ccc(C)nc3)c(=O)n(-c3ccc4nn(C)cc4c3)nc12` [Example 182, 5-(cyclopropylmethyl)-N-methyl-2-(2-methyl-2H-indazol-5-yl)-4-(6-methylpyridin-3-yl)-3-oxo-3,5-dihydro-2H-pyrrolo[3,2-c]pyridazine-7-sulfonamide]: the IC50 is above 10 µM.

On to `CNS(=O)(=O)c1cn(CC2CC2)c2c(-c3ccc(OC(F)F)cc3)c(=O)n(-c3ccc4nn(C)cc4c3)nc12` [Example 183, 5-(cyclopropylmethyl)-4-(4-(difluoromethoxy)phenyl)-N-methyl-2-(2-methyl-2H-indazol-5-yl)-3-oxo-3,5-dihydro-2H-pyrrolo[3,2-c]pyridazine-7-sulfonamide], for which the IC50 is above 10 µM.

Turning to `CN1CC=C(n2nc3ccn(CC4CC4)c3c(-c3ccc(C4CC4)nc3)c2=O)CC1` [Example 232, 5-(cyclopropylmethyl)-4-(6-cyclopropylpyridin-3-yl)-2-(1-methyl-1,2,3,6-tetrahydropyridin-4-yl)-2,5-dihydro-3H-pyrrolo[3,2-c]pyridazin-3-one], the IC50 was above 10 µM.

On to `Cn1cc2cc(-n3nc4c(S(C)(=O)=O)cn(CC5CC5)c4c(-c4ccc(C5CC5)nc4)c3=O)ccc2n1` [Example 261, 5-(cyclopropylmethyl)-4-(6-cyclopropylpyridin-3-yl)-2-(2-methyl-2H-indazol-5-yl)-7-(methylsulfonyl)-2,5-dihydro-3H-pyrrolo[3,2-c]pyridazin-3-one], for which the IC50 was below 1 µM.
